In patent US20240158446A1, “CYCLIC COMPOUND HAVING SELECTIVE INHIBITORY ACTION ON KRAS OVER HRAS AND NRAS” (CHUGAI SEIYAKU KABUSHIKI KAISHA, priority 2021, published 2024):
Like-named read-outs stand apart in the source and are kept apart here.

Assays:
[1] = target: GDP-bound KRAS wild-type protein (Homo sapiens, UniProt P01116); experiment: Binding to KRAS by surface plasmon resonance (SPR), Single Cycle Kinetics; conditions: GDP-bound KRAS wild-type protein, read-out: KRAS KD
[2] = target: GDP-bound NRAS wild-type protein (Homo sapiens, UniProt P01111); experiment: Binding to NRAS by surface plasmon resonance (SPR), Single Cycle Kinetics; conditions: for NRAS/KRAS (ratio of KD value for NRAS to KD value for KRAS): SPR, GDP-bound NRAS wild-type protein vs GDP-bound KRAS wild-type protein; for NRAS/KRAS (ratio of KD value with respect to GDP-bound NRAS wild-type protein to KD value with respect to KRAS): SPR KD ratio NRAS/KRAS, class symbols
GDP-bound NRAS wild-type protein, sequence (P01111 whole entry): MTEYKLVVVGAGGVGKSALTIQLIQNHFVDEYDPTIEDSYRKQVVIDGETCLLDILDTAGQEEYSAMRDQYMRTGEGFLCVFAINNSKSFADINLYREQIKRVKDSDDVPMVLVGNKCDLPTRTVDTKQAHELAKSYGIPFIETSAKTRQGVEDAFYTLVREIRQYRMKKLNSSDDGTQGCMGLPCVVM

[3] = target: GDP-bound HRAS wild-type protein (Homo sapiens, UniProt P01112); experiment: Binding to HRAS by surface plasmon resonance (SPR), Single Cycle Kinetics; conditions: for HRAS/KRAS (ratio of KD value for HRAS to KD value for KRAS): SPR, GDP-bound HRAS wild-type protein vs GDP-bound KRAS wild-type protein; for HRAS/KRAS (ratio of KD value with respect to GDP-bound HRAS wild-type protein to KD value with respect to KRAS): SPR KD ratio HRAS/KRAS, class symbols
GDP-bound HRAS wild-type protein, sequence (P01112 whole entry): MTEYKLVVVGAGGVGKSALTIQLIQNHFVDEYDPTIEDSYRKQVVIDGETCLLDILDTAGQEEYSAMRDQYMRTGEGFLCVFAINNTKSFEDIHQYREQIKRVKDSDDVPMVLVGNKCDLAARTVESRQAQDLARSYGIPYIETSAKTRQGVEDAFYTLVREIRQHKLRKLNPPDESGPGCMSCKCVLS

[4] = test system: human lung cancer strain NCI-H441;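 also: cell proliferation inhibition after four days measured by CellTiter-Glo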
[5] = SPR, Single Cycle Kinetics, 1:1 binding model
[6] = SPR Single Cycle Kinetics, 1:1 binding model

GDP-bound KRAS wild-type protein, sequence (P01116 whole entry): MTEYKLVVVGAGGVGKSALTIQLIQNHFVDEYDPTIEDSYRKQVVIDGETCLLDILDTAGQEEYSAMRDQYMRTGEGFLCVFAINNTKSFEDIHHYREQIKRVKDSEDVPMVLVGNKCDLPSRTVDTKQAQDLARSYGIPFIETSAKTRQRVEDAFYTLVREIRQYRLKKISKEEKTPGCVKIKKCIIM

Compound	Kd ([1]; SPR, Single Cycle Kinetics) [nM]	IC50 [4] [nM]	Kd [1, 5] [nM]	Kd [1, 6] [nM]	NRAS/KRAS (ratio of KD value for NRAS to KD value for KRAS) [2]	HRAS/KRAS (ratio of KD value for HRAS to KD value for KRAS) [3]	NRAS/KRAS (ratio of KD value for NRAS to KD value for KRAS) ([2]; KD ratio class)	HRAS/KRAS (ratio of KD value for HRAS to KD value for KRAS) ([3]; KD ratio class)	NRAS/KRAS (ratio of KD value with respect to GDP-bound NRAS wild-type protein to KD value with respect to KRAS) [2]	HRAS/KRAS (ratio of KD value with respect to GDP-bound HRAS wild-type protein to KD value with respect to KRAS) [3]
CCO[C@@H]1C[C@H]2C(=O)NC3(CCC3)C(=O)N(C)[C@@H](C3CCCC3)C(=O)N(C)[C@H](C(=O)N(C)C)CC(=O)N(C)[C@@H](C)C(=O)N[C@@H]([C@@H](C)CC)C(=O)N(C)CC(=O)N(C)[C@H]3CCCCCN(C3=O)[C@@H](Cc3ccc(F)cc3)C(=O)N(C)CC(=O)N[C@@H](CCc3cc(F)c(C(F)(F)F)c(F)c3)C(=O)N2C1 [PP1189]	0.066	16.1			B (a compound having 3 or more and less than 10 is denoted as B)	B (a compound having 3 or more and less than 10 is denoted as B)				
CC[C@H](C)[C@@H]1NC(=O)[C@H](CC)N(C)C(=O)C[C@@H](C(=O)N(C)C)N(C)C(=O)[C@H](C2CCCC2)N(C)C(=O)C2(CCC2)NC(=O)[C@@H]2C[C@H](C)CN2C(=O)[C@H](CCc2cc(F)c(C(F)(F)F)c(F)c2)NC(=O)CN(C)C(=O)[C@H](Cc2ccc(C(F)(F)F)cc2)N2CC/C=C\C[C@@H](C2=O)N(C)C(=O)CN(C)C1=O [PP1134, (2S,8S,12S,14S,20S,23S,27S,30S,36S,38Z)-20-cyclopentyl-8-[2-[3,5-difluoro-4-(trifluoromethyl)phenyl]ethyl]-27-ethyl-N,N,4,12,19,22,26,32,35-nonamethyl-30-[(1S)-1-methylpropyl]-3,6,9,15,18,21,25,28,31,34,42-undecaoxo-2-[[4-(trifluoromethyl)phenyl]methyl]spiro[1,4,7,10,16,19,22,26,29,32,35-undecazatricyclo[34.5.1.0^10,14]dotetracont-38-ene-17,1′-cyclobutane]-23-carboxamide]	0.06	20			A (a compound having 10 or more and less than 20 is denoted as A)	B (a compound having 3 or more and less than 10 is denoted as B)				
CCOC[C@H]1C(=O)N[C@@H]([C@@H](C)CC)C(=O)N(C)CC(=O)N(C)[C@H]2C/C=C\CCN(C2=O)[C@@H](CC2CCC(F)(F)CC2)C(=O)N(C)CC(=O)N[C@@H](CCc2cc(F)c(C(F)(F)F)c(F)c2)C(=O)N2C[C@@H](C)C[C@H]2C(=O)NC2(CC(C)(C)C2)C(=O)N(C)[C@@H](C(CC)CC)C(=O)N(C)[C@H](C(=O)N(C)C)CC(=O)N1C [PP2462]	1.6	87.2			A (a compound having 10 or more and less than 20 is denoted as A)	A (a compound having 10 or more and less than 20 is denoted as A)				
CC[C@H](C)[C@@H]1NC(=O)[C@H](COC)N(C)C(=O)C[C@@H](C(=O)N(C)C)N(C)C(=O)[C@H](C2CCCCC2)N(C)C(=O)C2(CC(C)(C)C2)NC(=O)[C@@H]2C[C@@H](OC3CCCC3)CN2C(=O)[C@H](CCc2cc(F)c(C(F)(F)F)c(F)c2)NC(=O)CN(C)C(=O)[C@H](Cc2ccc(C(F)(F)F)cc2)N2CC/C=C\C[C@@H](C2=O)N(C)C(=O)CN(C)C1=O [PP2656]		22.5		0.31					A (a compound having 10 or more and less than 20 is denoted as A)	B (a compound having 3 or more and less than 10 is denoted as B)
CCC[C@H]1C(=O)N[C@@H](CC(C)C)C(=O)N(C2CC2)CC(=O)N(C)[C@H]2C/C=C\CCN(C2=O)[C@@H](Cc2ccc(C)cc2)C(=O)N(C)CC(=O)N[C@@H](CCc2ccc(C(F)(F)F)c(OC)c2)C(=O)N2C[C@H](OCC)C[C@H]2C(=O)NC2(CCC2)C(=O)N(C)[C@@H](C2CCCC2)C(=O)N(C)[C@H](C(=O)N(C)C)CC(=O)N1C [PP2534]		195		4.1					A (a compound having 10 or more and less than 20 is denoted as A)	B (a compound having 3 or more and less than 10 is denoted as B)
CCOC[C@H]1C(=O)N[C@@H]([C@@H](C)CC)C(=O)N(C2CC2)CC(=O)N(C)[C@H]2C/C=C\CCN(C2=O)[C@@H](Cc2ccc(C)cc2)C(=O)N(C)CC(=O)N[C@@H](CCc2ccc(Cl)c(Cl)c2)C(=O)N2C[C@H](OCC)C[C@H]2C(=O)NC2(CC(C)(C)C2)C(=O)N(C)[C@@H](CC2CCC2)C(=O)N(C)[C@H](C(=O)N(C)C)CC(=O)N1C [PP2762]		122		2.9					A (a compound having 10 or more and less than 20 is denoted as A)	A (a compound having 10 or more and less than 20 is denoted as A)

More lines, main results first:

Kd ([1]; SPR, Single Cycle Kinetics) [nM]	IC50 [4] [nM]	Kd [1, 5] [nM]	Kd [1, 6] [nM]	Compound	NRAS/KRAS (ratio of KD value for NRAS to KD value for KRAS) [2]	HRAS/KRAS (ratio of KD value for HRAS to KD value for KRAS) [3]	NRAS/KRAS (ratio of KD value for NRAS to KD value for KRAS) ([2]; KD ratio class)	HRAS/KRAS (ratio of KD value for HRAS to KD value for KRAS) ([3]; KD ratio class)	NRAS/KRAS (ratio of KD value with respect to GDP-bound NRAS wild-type protein to KD value with respect to KRAS) [2]	HRAS/KRAS (ratio of KD value with respect to GDP-bound HRAS wild-type protein to KD value with respect to KRAS) [3]
	59.7	0.67		CCO[C@@H]1C[C@H]2C(=O)NC3(CCC3)C(=O)N(C)[C@@H](C(CC)CC)C(=O)N(C)[C@H](C(=O)N(C)C)CC(=O)N(C)[C@@H](CC(C)C)C(=O)N[C@@H]([C@@H](C)CC)C(=O)N(C)CC(=O)N(C)[C@H]3C/C=C\CCN(C3=O)[C@@H](Cc3ccc(C(F)(F)F)cc3)C(=O)N(C)CC(=O)N[C@@H](CCc3cc(F)c(Cl)c(F)c3)C(=O)N2C1 [PP1232]			A (a compound having 10 or more and less than 20 is denoted as A)	A (a compound having 10 or more and less than 20 is denoted as A)		
	562		4.6	CCC[C@H]1C(=O)N[C@@H](CC(C)C)C(=O)N(CC)CC(=O)N(C)[C@H]2C/C=C\CCN(C2=O)[C@@H](Cc2ccc(C)cc2)C(=O)N(C)CC(=O)N[C@@H](CCc2ccc(C(F)(F)F)c(OC)c2)C(=O)N2C[C@H](OCC)C[C@H]2C(=O)NC2(CCC2)C(=O)N(C)[C@@H](C2CCCC2)C(=O)N(C)[C@H](C(=O)N(C)C)CC(=O)N1C [PP2540]					A (a compound having 10 or more and less than 20 is denoted as A)	B (a compound having 3 or more and less than 10 is denoted as B)
0.12	6.6			CCOC[C@H]1C(=O)N[C@@H]([C@@H](C)CC)C(=O)N(C)CC(=O)N(C)[C@H]2C/C=C\CCN(C2=O)[C@@H](Cc2ccc(C)cc2)C(=O)N(C)CC(=O)N[C@@H](CCc2cc(F)c(C(F)(F)F)c(F)c2)C(=O)N2C[C@@H](C)C[C@H]2C(=O)NC2(CC(C)(C)C2)C(=O)N(C)[C@@H](C2CCCC2)C(=O)N(C)[C@H](C(=O)N(C)C)CC(=O)N1C [PP2439]	A (a compound having 10 or more and less than 20 is denoted as A)	A (a compound having 10 or more and less than 20 is denoted as A)				
	76.4	0.45		CCO[C@@H]1C[C@H]2C(=O)NC3(CCC3)C(=O)N(C)[C@@H](C3CCCC3)C(=O)N(C)[C@H](C(=O)N(C)C)CC(=O)N(C)[C@@H](CC(C)C)C(=O)N[C@@H]([C@@H](C)CC)C(=O)N(C)CC(=O)N(C)[C@H]3C/C=C\CCN(C3=O)[C@@H](Cc3ccc(F)cc3)C(=O)N(C)CC(=O)N[C@@H](CCc3ccc(Cl)c(Cl)c3)C(=O)N2C1 [PP1482]			A (a compound having 10 or more and less than 20 is denoted as A)	B (a compound having 3 or more and less than 10 is denoted as B)		
	12.1	0.045		CCO[C@@H]1C[C@H]2C(=O)NC3(CCC3)C(=O)N(C)[C@@H](C3CCCC3)C(=O)N(C)[C@H](C(=O)N(C)C)CC(=O)N(C)[C@@H](COC3CC3)C(=O)N[C@@H]([C@@H](C)CC)C(=O)N(C)CC(=O)N(C)[C@H]3C/C=C\CCN(C3=O)[C@@H](Cc3ccc(C(F)(F)F)cc3)C(=O)N(C)CC(=O)N[C@@H](CCc3cc(F)c(C(F)(F)F)c(F)c3)C(=O)N2C1 [PP1268, (2S,8S,12R,14S,20S,23S,27S,30S,36S,38Z)-20-cyclopentyl-27-(cyclopropoxymethyl)-8-[2-[3,5-difluoro-4-(trifluoromethyl)phenyl]ethyl]-12-ethoxy-N,N,4,19,22,26,32,35-octamethyl-30-[(1S)-1-methylpropyl]-3,6,9,15,18,21,25,28,31,34,42-undecaoxo-2-[[4-(trifluoromethyl)phenyl]methyl]spiro[1,4,7,10,16,19,22,26,29,32,35-undecazatricyclo[34.5.1.0^10,14]dotetracont-38-ene-17,1′-cyclobutane]-23-carboxamide]			A (a compound having 10 or more and less than 20 is denoted as A)	A (a compound having 10 or more and less than 20 is denoted as A)		
1.5	176			CCOC[C@H]1C(=O)N[C@@H]([C@@H](C)CC)C(=O)N(C)CC(=O)N(C)[C@H]2C/C=C\CCN(C2=O)[C@@H](CC2CCC(F)(F)CC2)C(=O)N(C)CC(=O)N[C@@H](CCc2ccc(C(F)(F)F)c(Cl)c2)C(=O)N2C[C@@H](C)C[C@H]2C(=O)NC2(CC(C)(C)C2)C(=O)N(C)[C@@H](C(CC)CC)C(=O)N(C)[C@H](C(=O)N(C)C)CC(=O)N1C [PP2475]	AA (a compound having 20 or more is denoted as AA)	A (a compound having 10 or more and less than 20 is denoted as A)				
